In patent US12077503B2, “Substituted cyclic amides and their use as herbicides” (FMC CORPORATION, priority 2015, dated 2024):

What was measured:
Assay type in all cases: in vivo
[1] = system: Kochia (Kochia scoparia); experiment: Test A preemergence; conditions: for Plant response rating, Kochia: 125 g ai/ha; for Kochia plant response rating (0 to 100 scale, 0 is no effect, 100 is complete control): 500 g ai/ha, visual injury approx. 10 d
From the text: (§1) Seeds of plant species selected from barnyardgrass (Echinochloa crus-galli), Kochia (Kochia scoparia), ragweed (common ragweed, Ambrosia elatior), ryegrass, Italian (Italian ryegrass, Lolium multiflorum), crabgrass, large (Digitaria sanguinalis), giant foxtail (Setaria faberii), green foxtail (Setaria viridis), morningglory (Ipomoea spp.), pigweed (Amaranthus retroflexus), velvetleaf (Abutilon theophrasti), wheat (Triticum aestivum), and corn (Zea mays) were planted into a blend of loam soil and sand and treated preemergence with a directed soil spray using test chemicals formulated in anon-phytotoxic solvent mixture which included a surfactant.
(§2) At the same time, plants selected from these crop and weed species and also blackgrass (Alopecurus myosuroides), and Galium (catchweed bedstraw, Galium aparine) were planted in pots containing the same blend of loam soil and sand and treated with postemergence applications of test chemicals formulated in the same manner. Plants ranged in height from 2 to 10 cm and were in the one- to two-leaf stage for the postemergence treatment. Treated plants and untreated controls were maintained in a greenhouse for approximately 10 d, after which time all treated plants were compared to untreated controls and visually evaluated for injury. Plant response ratings, summarized in Table A, are based on a 0 to 100 scale where 0 is no effect and 100 is complete control. A dash (-) response means no test result.

[2] = system: barnyardgrass (Echinochloa crus-galli); experiment: Test A preemergence; conditions: for Plant response rating, Barnyardgrass: 125 g ai/ha; for Barnyardgrass plant response rating (0 to 100 scale, 0 is no effect, 100 is complete control): 500 g ai/ha, visual injury approx. 10 d
From the text: as §1, §2

[3] = system: giant foxtail (Setaria faberii); experiment: Test A preemergence; conditions: for Plant response rating, Foxtail, Giant: 125 g ai/ha; for Foxtail, Giant plant response rating (0 to 100 scale, 0 is no effect, 100 is complete control): 500 g ai/ha, visual injury approx. 10 d
From the text: as §1, §2

[4] = system: pigweed (Amaranthus retroflexus); experiment: Test A preemergence; conditions: for Plant response rating, Pigweed: 125 g ai/ha; for Pigweed plant response rating (0 to 100 scale, 0 is no effect, 100 is complete control): 500 g ai/ha, visual injury approx. 10 d
From the text: as §1, §2

[5] = system: ragweed (common ragweed, Ambrosia elatior); experiment: Test A preemergence; conditions: for Plant response rating, Ragweed: 125 g ai/ha; for Ragweed plant response rating (0 to 100 scale, 0 is no effect, 100 is complete control): 500 g ai/ha, visual injury approx. 10 d
From the text: as §1, §2

[6] = system: ryegrass, Italian (Italian ryegrass, Lolium multiflorum); experiment: Test A preemergence; conditions: for Plant response rating, Ryegrass, Italian: 125 g ai/ha; for Ryegrass, Italian plant response rating (0 to 100 scale, 0 is no effect, 100 is complete control): 500 g ai/ha, visual injury approx. 10 d
From the text: as §1, §2

[7] = system: Galium (catchweed bedstraw, Galium aparine); experiment: Test A postemergence; conditions: for Galium plant response rating: 125 g ai/ha, visual injury rating on 0 to 100 scale (0 no effect, 100 complete control), approx. 10 d; for Plant response rating, Galium: 500 g ai/ha
From the text: as §1, §2

[8] = system: Kochia (Kochia scoparia); experiment: Test A postemergence; conditions: for Kochia plant response rating: 125 g ai/ha, visual injury rating on 0 to 100 scale (0 no effect, 100 complete control), approx. 10 d; for Plant response rating, Kochia: 500 g ai/ha
From the text: as §1, §2

[9] = system: barnyardgrass (Echinochloa crus-galli); experiment: Test A postemergence; conditions: for Barnyardgrass plant response rating: 125 g ai/ha, visual injury rating on 0 to 100 scale (0 no effect, 100 complete control), approx. 10 d; for Plant response rating, Barnyardgrass: 500 g ai/ha
From the text: as §1, §2

[10] = system: blackgrass (Alopecurus myosuroides); experiment: Test A postemergence; conditions: for Blackgrass plant response rating: 125 g ai/ha, visual injury rating on 0 to 100 scale (0 no effect, 100 complete control), approx. 10 d; for Plant response rating, Blackgrass: 500 g ai/ha
From the text: as §1, §2

[11] = system: corn (Zea mays); experiment: Test A postemergence; conditions: for Corn plant response rating: 125 g ai/ha, visual injury rating on 0 to 100 scale (0 no effect, 100 complete control), approx. 10 d; for Plant response rating, Corn: 500 g ai/ha
From the text: as §1, §2

[12] = system: giant foxtail (Setaria faberii); experiment: Test A postemergence; conditions: for Foxtail, Giant plant response rating: 125 g ai/ha, visual injury rating on 0 to 100 scale (0 no effect, 100 complete control), approx. 10 d; for Plant response rating, Foxtail, Giant: 500 g ai/ha
From the text: as §1, §2

[13] = system: pigweed (Amaranthus retroflexus); experiment: Test A postemergence; conditions: for Pigweed plant response rating: 125 g ai/ha, visual injury rating on 0 to 100 scale (0 no effect, 100 complete control), approx. 10 d; for Plant response rating, Pigweed: 500 g ai/ha
From the text: as §1, §2

[14] = system: ragweed (common ragweed, Ambrosia elatior); experiment: Test A postemergence; conditions: for Ragweed plant response rating: 125 g ai/ha, visual injury rating on 0 to 100 scale (0 no effect, 100 complete control), approx. 10 d; for Plant response rating, Ragweed: 500 g ai/ha
From the text: as §1, §2

[15] = system: ryegrass, Italian (Italian ryegrass, Lolium multiflorum); experiment: Test A postemergence; conditions: for Ryegrass, Italian plant response rating: 125 g ai/ha, visual injury rating on 0 to 100 scale (0 no effect, 100 complete control), approx. 10 d; for Plant response rating, Ryegrass, Italian: 500 g ai/ha
From the text: as §1, §2

[16] = system: wheat (Triticum aestivum); experiment: Test A postemergence; conditions: for Wheat plant response rating: 125 g ai/ha, visual injury rating on 0 to 100 scale (0 no effect, 100 complete control), approx. 10 d; for Plant response rating, Wheat: 500 g ai/ha
From the text: as §1, §2

[17] = system: barnyardgrass (Echinochloa crus-galli); experiment: Test B flooded paddy test; conditions: Flood, 0 to 100 scale where 0 is no effect and 100 is complete control, 13 to 15 d
In short: (§3)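 Compound goes directly into floodwater once pots are flooded 3 cm above soil, targeting plants at two leaves; the water depth is then held for the test duration. Plants sit 13–15 d in a greenhouse and are rated visually, 100 denoting complete control.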

[18] = system: ducksalad (Heteranthera limosa); experiment: Test B flooded paddy test; conditions: Flood, 0 to 100 scale where 0 is no effect and 100 is complete control, 13 to 15 d
In short: as §3

[19] = system: rice (Oryra sativa); experiment: Test B flooded paddy test; conditions: Flood, 0 to 100 scale where 0 is no effect and 100 is complete control, 13 to 15 d
In short: as §3

[20] = system: sedge, umbrella (small-flower umbrella sedge, Cyperus difformis); experiment: Test B flooded paddy test; conditions: Flood, 0 to 100 scale where 0 is no effect and 100 is complete control, 13 to 15 d
In short: as §3

[21] = preemergence, 0 to 100 scale (0 no effect, 100 complete control)
[22] = postemergence, 0 to 100 scale, 0 no effect, 100 complete control
[23] = Preemergence, visual injury after approximately 10 d, 0 to 100 scale where 0 is no effect and 100 is complete control
[24] = Postemergence, 0 to 100 scale where 0 is no effect and 100 is complete control

Compound	Plant response rating, Kochia [1, 21]	Kochia plant response rating (0 to 100 scale, 0 is no effect, 100 is complete control) ([1]; Preemergence)	Plant response rating, Barnyardgrass [2, 21]	Barnyardgrass plant response rating (0 to 100 scale, 0 is no effect, 100 is complete control) ([2]; Preemergence)	Plant response rating, Foxtail, Giant [3, 21]	Foxtail, Giant plant response rating (0 to 100 scale, 0 is no effect, 100 is complete control) ([3]; Preemergence)	Pigweed plant response rating (0 to 100 scale, 0 is no effect, 100 is complete control) ([4]; Preemergence)	Ragweed plant response rating (0 to 100 scale, 0 is no effect, 100 is complete control) ([5]; Preemergence)	Ryegrass, Italian plant response rating (0 to 100 scale, 0 is no effect, 100 is complete control) ([6]; Preemergence)	Galium plant response rating ([7]; postemergence)	Kochia plant response rating ([8]; postemergence)	Barnyardgrass plant response rating ([9]; postemergence)	Plant response rating, Barnyardgrass [9, 22]	Blackgrass plant response rating ([10]; postemergence)	Corn plant response rating ([11]; postemergence)	Foxtail, Giant plant response rating ([12]; postemergence)	Pigweed plant response rating ([13]; postemergence)	Ragweed plant response rating ([14]; postemergence)	Ryegrass, Italian plant response rating ([15]; postemergence)	Wheat plant response rating ([16]; postemergence)	further results
CN1CC(c2ccc3c(c2)OC(F)(F)O3)C(C(=O)Nc2ccc(F)cc2F)C1=O (stereo not drawn) [Compound 444]	60	80	90	90	90	90	80	80	90	60	40	80	90	70	60	80	50	20	50	50	Plant response rating, Pigweed [4, 21]: 80; Plant response rating, Ragweed [5, 21]: 50; Plant response rating, Ryegrass, Italian [6, 21]: 40; Plant response rating, Galium [7, 22]: 70; Plant response rating, Kochia [8, 22]: 80; Plant response rating, Blackgrass [10, 22]: 60; Plant response rating, Corn [11, 22]: 70; Plant response rating, Foxtail, Giant [12, 22]: 80; Plant response rating, Pigweed [13, 22]: 80; Plant response rating, Ragweed [14, 22]: 40; Plant response rating, Ryegrass, Italian [15, 22]: 80; Plant response rating, Wheat [16, 22]: 50; Plant response rating, Barnyardgrass ([17]; 250 g ai/ha): 75; Plant response rating, Ducksalad ([18]; 250 g ai/ha): 100; Plant response rating, Rice ([19]; 250 g ai/ha): 0; Plant response rating, Sedge, Umbrella ([20]; 250 g ai/ha): 0
O=C1NCC(c2ccc(F)c(F)c2)C1C(=O)Nc1ccc(Cl)cc1F (stereo not drawn) [Compound 410]	0	0	50	60	70	80	20	0	0	0	0	20	50	0	0	0	0	0	0	0	Plant response rating, Pigweed [4, 21]: 0; Plant response rating, Ragweed [5, 21]: 0; Plant response rating, Ryegrass, Italian [6, 21]: 0; Plant response rating, Galium [7, 22]: 0; Plant response rating, Kochia [8, 22]: 0; Plant response rating, Blackgrass [10, 22]: 20; Plant response rating, Corn [11, 22]: 0; Plant response rating, Foxtail, Giant [12, 22]: 40; Plant response rating, Pigweed [13, 22]: 20; Plant response rating, Ragweed [14, 22]: 0; Plant response rating, Ryegrass, Italian [15, 22]: 0; Plant response rating, Wheat [16, 22]: 0; Plant response rating, Barnyardgrass ([17]; 500 g ai/ha): 0; Plant response rating, Ducksalad ([18]; 500 g ai/ha): 30; Plant response rating, Rice ([19]; 500 g ai/ha): 0; Plant response rating, Sedge, Umbrella ([20]; 500 g ai/ha): 0
O=C1NCC(c2c(F)cccc2F)C1C(=O)Nc1cccc(F)c1F (racemic) [Compound 516]		0		80		90	0	0	0	0	0	0		0	0	0	0	0	0	0	Plant response rating, Kochia [1, 23]: 0; Plant response rating, Barnyardgrass [2, 23]: 40; Plant response rating, Foxtail, Giant [3, 23]: 70; Plant response rating, Pigweed [4, 23]: 0; Plant response rating, Ragweed [5, 23]: 0; Plant response rating, Ryegrass, Italian [6, 23]: 0; Plant response rating, Galium [7, 24]: 0; Plant response rating, Kochia [8, 24]: 0; Plant response rating, Barnyardgrass [9, 24]: 70; Plant response rating, Blackgrass [10, 24]: 0; Plant response rating, Corn [11, 24]: 0; Plant response rating, Foxtail, Giant [12, 24]: 70; Plant response rating, Pigweed [13, 24]: 0; Plant response rating, Ragweed [14, 24]: 0; Plant response rating, Ryegrass, Italian [15, 24]: 0; Plant response rating, Wheat [16, 24]: 0; Plant response rating, Barnyardgrass ([17]; 250 g ai/ha): 0; Plant response rating, Ducksalad ([18]; 250 g ai/ha): 0; Plant response rating, Rice ([19]; 250 g ai/ha): 0; Plant response rating, Sedge, Umbrella ([20]; 250 g ai/ha): 0
CC(C)c1ccc(C2CNC(=O)C2C(=O)Nc2ccccc2F)cc1 (stereo not drawn) [Compound 469]	0	0	80	90	80	90	0	0	0	0	0	70	80	0	0	20	0	0	0	0	Plant response rating, Pigweed [4, 23]: 0; Plant response rating, Ragweed [5, 23]: 0; Plant response rating, Ryegrass, Italian [6, 23]: 0; Plant response rating, Galium [7, 24]: 0; Plant response rating, Kochia [8, 24]: 0; Plant response rating, Blackgrass [10, 22]: 40; Plant response rating, Corn [11, 22]: 0; Plant response rating, Foxtail, Giant [12, 24]: 60; Plant response rating, Pigweed [13, 24]: 0; Plant response rating, Ragweed [14, 24]: 0; Plant response rating, Ryegrass, Italian [15, 24]: 20; Plant response rating, Wheat [16, 24]: 0; Plant response rating, Barnyardgrass ([17]; 250 g ai/ha): 40; Plant response rating, Ducksalad ([18]; 250 g ai/ha): 70; Plant response rating, Rice ([19]; 250 g ai/ha): 0; Plant response rating, Sedge, Umbrella ([20]; 250 g ai/ha): 0
